Where only a bound is given, the exact number is not on record here.

What is called Ki is a dissociation constant, usually derived from enzyme kinetics or from competition with a known ligand. High values mean lower affinity, low ones higher affinity.

For test [1], the target named is T1, Adrenergic receptor alpha-1 (Rattus norvegicus, UniProt P15823+P23944+P43140).
T1 sequence (P15823 whole entry): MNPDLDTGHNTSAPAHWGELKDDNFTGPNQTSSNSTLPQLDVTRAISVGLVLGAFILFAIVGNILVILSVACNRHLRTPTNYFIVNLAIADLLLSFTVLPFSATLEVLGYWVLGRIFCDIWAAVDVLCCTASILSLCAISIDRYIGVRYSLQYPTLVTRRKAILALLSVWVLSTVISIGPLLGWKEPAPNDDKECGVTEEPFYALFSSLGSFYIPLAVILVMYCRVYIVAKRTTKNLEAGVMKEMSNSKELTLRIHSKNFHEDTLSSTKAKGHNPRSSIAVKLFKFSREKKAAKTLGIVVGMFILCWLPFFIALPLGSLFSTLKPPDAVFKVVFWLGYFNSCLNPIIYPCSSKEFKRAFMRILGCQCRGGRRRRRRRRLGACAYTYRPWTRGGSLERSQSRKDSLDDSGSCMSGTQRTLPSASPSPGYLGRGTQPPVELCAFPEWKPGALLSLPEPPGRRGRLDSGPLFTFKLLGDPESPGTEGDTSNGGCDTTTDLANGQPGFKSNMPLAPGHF
T1 sequence (P23944 whole entry): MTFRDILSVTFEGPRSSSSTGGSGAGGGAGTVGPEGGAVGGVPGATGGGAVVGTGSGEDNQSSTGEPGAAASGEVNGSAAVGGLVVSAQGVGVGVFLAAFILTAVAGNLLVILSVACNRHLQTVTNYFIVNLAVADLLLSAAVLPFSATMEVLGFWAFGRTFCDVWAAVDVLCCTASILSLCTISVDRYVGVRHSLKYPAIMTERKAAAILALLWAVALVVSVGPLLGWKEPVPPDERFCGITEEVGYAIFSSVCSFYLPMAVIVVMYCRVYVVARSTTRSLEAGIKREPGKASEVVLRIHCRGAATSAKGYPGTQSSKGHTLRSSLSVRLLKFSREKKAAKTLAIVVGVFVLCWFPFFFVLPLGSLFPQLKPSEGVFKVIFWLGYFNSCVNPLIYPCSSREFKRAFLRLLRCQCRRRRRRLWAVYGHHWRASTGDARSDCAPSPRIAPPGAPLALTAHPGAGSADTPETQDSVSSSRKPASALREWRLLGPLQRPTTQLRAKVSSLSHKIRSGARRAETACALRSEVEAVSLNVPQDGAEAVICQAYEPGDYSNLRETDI
T1 sequence (P43140 whole entry): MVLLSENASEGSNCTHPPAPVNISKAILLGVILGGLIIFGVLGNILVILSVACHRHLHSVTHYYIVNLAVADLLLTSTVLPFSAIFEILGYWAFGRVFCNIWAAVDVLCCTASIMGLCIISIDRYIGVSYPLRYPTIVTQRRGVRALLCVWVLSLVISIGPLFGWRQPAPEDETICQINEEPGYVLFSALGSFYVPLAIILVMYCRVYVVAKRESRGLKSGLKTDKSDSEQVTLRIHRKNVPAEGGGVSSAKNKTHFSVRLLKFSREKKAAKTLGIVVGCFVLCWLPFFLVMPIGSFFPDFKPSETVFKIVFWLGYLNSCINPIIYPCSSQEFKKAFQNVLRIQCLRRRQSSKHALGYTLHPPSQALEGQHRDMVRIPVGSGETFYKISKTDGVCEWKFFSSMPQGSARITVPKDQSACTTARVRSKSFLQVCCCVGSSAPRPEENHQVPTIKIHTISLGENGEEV
Description: Binding affinity towards Alpha-1 adrenergic receptor in rat cerebral cortex membranes using [3H]prazosin as radioligand. In kind it is cell membranes, Membrane.

Test [2] concerns the target T2, 5-hydroxytryptamine receptor 1A (Rattus norvegicus, UniProt P19327).
T2 sequence (P19327 whole entry): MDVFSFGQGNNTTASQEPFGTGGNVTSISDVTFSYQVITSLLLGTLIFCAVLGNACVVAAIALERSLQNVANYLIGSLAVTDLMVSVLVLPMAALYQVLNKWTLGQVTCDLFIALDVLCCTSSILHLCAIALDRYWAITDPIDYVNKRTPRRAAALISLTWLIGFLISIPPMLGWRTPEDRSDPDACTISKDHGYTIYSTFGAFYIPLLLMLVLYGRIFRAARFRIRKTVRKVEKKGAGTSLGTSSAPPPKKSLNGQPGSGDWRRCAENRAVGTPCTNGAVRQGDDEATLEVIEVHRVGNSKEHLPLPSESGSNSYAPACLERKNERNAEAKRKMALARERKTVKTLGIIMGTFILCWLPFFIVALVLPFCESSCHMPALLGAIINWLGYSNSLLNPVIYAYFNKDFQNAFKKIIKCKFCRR
Description: Binding affinity towards 5-HT 1A receptor in rat cerebral cortex membranes using [3H]8-OH-DPAT as radioligand. In kind it is cell membranes, Membrane.

The target of test [3] is 5-hydroxytryptamine receptor 7 (Rattus norvegicus, UniProt P32305). Description: Binding affinity towards 5-HT 7 receptor in rat hypothalamus membranes using [3H]5-CT as radioligand. Type of test: cell membranes, Membrane.
The target of test [4] is GABA-A receptor; anion channel. Put plainly: Displacement of [3H]flunitrazepam from GABA-A benzodiazepine receptor of rat cerebral cortex membranes. Type of test: cell membranes, Membrane. On the technique in general: In a radioligand displacement assay an active substance lowers the binding of a labelled ligand.
Test [5] has as its target 5-hydroxytryptamine receptor 4 (Rattus norvegicus, UniProt Q62758). Put plainly: Binding affinity towards 5-HT 4 receptor in rat striatum membranes using [3H]GR-113808 as radioligand. In kind it is cell membranes, Membrane.
The target of test [6] is D(2) dopamine receptor (Rattus norvegicus, UniProt P61169). Put plainly: Binding affinity towards dopamine D2 receptor in rat striatum membranes using [3H]raclopride as radioligand. In kind it is cell membranes, Membrane.
Test [7] addresses 5-hydroxytryptamine receptor 2A (Rattus norvegicus, UniProt P14842). Description: Binding affinity towards 5-HT 2A receptor in rat cerebral frontal cortex membranes using [3H]ketanserin as radioligand. Type of test: tissue-based, Membrane.
Test [8] addresses Sodium-dependent serotonin transporter (Rattus norvegicus, UniProt P31652). Description: Binding affinity towards 5-HT transporter in rat cerebral cortex membranes using [3H]paroxetine as radioligand. In kind it is cell membranes, Membrane.

D(2) dopamine receptor, sequence (P61169 whole entry): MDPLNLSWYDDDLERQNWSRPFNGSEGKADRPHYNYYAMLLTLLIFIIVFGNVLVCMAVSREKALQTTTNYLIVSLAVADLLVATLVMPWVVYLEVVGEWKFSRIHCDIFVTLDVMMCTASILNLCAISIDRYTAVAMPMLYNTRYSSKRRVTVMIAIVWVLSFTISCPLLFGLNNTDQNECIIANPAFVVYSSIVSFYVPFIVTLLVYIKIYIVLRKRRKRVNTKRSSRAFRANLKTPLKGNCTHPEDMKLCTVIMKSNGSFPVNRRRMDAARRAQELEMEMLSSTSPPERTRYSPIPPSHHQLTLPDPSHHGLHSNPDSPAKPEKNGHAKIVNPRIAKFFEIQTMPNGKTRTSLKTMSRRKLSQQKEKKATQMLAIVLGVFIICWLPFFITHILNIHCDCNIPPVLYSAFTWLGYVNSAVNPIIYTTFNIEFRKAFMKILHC
5-hydroxytryptamine receptor 4, sequence (Q62758 whole entry): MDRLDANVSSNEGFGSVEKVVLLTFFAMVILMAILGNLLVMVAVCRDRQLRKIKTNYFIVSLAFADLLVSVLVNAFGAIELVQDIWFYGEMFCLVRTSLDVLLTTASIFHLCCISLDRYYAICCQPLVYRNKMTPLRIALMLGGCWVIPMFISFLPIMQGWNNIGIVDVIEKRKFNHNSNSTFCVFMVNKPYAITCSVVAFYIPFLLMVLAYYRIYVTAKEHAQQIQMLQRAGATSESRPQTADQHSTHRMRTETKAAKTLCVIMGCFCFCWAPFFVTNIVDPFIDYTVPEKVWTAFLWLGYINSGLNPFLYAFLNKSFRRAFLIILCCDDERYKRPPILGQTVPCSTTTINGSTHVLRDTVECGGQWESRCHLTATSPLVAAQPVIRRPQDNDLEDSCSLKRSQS
5-hydroxytryptamine receptor 2A, sequence (P14842 whole entry): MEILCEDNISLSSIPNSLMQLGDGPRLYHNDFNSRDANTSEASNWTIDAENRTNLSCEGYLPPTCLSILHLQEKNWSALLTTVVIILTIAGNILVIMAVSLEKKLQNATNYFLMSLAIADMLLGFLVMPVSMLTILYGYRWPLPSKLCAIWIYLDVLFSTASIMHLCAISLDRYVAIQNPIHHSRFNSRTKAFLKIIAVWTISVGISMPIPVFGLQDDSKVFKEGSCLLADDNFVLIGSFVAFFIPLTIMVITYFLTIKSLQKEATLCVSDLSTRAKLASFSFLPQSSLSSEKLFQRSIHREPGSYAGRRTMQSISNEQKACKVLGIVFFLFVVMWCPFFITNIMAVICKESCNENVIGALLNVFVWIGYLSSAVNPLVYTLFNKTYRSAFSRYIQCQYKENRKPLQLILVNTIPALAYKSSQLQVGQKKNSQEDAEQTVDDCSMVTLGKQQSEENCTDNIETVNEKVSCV
5-hydroxytryptamine receptor 7, sequence (P32305 whole entry): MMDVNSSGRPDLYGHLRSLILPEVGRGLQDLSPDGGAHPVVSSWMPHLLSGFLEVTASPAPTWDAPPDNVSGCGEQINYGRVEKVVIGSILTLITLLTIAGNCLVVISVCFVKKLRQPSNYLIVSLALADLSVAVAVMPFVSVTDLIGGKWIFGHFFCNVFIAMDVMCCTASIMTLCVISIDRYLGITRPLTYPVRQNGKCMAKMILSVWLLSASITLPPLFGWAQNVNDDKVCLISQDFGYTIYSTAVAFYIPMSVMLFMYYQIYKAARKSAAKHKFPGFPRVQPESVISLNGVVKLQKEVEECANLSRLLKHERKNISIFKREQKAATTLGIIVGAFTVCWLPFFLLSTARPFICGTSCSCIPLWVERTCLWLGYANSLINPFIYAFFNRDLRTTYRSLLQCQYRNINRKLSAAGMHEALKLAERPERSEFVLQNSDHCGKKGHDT
Sodium-dependent serotonin transporter, sequence (P31652 whole entry): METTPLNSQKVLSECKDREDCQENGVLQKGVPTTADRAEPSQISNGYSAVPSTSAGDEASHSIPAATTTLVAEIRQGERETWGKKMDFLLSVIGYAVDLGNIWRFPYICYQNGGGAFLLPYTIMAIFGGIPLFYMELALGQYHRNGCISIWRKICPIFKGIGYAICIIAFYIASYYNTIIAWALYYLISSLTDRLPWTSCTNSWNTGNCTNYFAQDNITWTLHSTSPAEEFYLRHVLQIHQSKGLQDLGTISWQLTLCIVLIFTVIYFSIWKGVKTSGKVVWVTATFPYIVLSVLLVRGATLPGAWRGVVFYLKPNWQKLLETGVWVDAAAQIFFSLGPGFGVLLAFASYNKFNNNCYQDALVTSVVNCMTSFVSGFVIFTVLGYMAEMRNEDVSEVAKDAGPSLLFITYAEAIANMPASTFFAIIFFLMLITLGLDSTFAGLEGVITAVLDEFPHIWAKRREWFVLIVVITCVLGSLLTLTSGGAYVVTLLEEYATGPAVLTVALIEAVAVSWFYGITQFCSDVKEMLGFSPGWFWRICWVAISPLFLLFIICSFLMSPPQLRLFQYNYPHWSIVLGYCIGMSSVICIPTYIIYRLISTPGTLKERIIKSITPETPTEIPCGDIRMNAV

Regarding `O=C1C2CCCCN2C(=O)N1CN1CCN(c2cccc3c2OCCO3)CC1` (configuration not stated), the Ki in test [1] was > 1000 nM; in test [2] it was 9.3 nM.

With `O=C1C2CCCN2C(=O)CN1CN1CCN(c2cccc3ccccc23)CC1` (configuration not stated), the inhibition constant Ki in test [3] was 101 nM; in test [4], > 10000 nM; in test [1], > 1000 nM; in test [5] it was > 10000 nM; in test [6] it was 192 nM; in test [7] it was 13.5 nM. The Ki in test [2] was 4.1 nM; in test [8], 976 nM.

On to `O=C1C2CCCN2C(=O)CN1CN1CCN(c2cccc3c2COCCO3)CC1` (configuration not stated), for which the Ki was > 1000 nM in test [1] and 12.3 nM in test [2].

Take `O=C1C2CCCN2C(=O)N1CCCCN1CCN(c2cccc3ccccc23)CC1` (configuration not stated): the Ki in test [1] worked out at 64.9 nM; in test [2], 2.4 nM.

Regarding `O=C1C2CCCN2C(=O)N1CN1CCN(c2cccc3ccccc23)CC1` (configuration not stated), the Ki is > 1000 nM in test [1] and 10.4 nM in test [2].

For the molecule `O=C1C2CCCCN2C(=O)N1CN1CCN(c2cccc3c2COCCO3)CC1` (configuration not stated), the Ki in test [1] is > 1000 nM; in test [2], 6.1 nM.

As for `O=C1C2CCCCN2C(=O)N1CN1CCN(c2cccc3ccccc23)CC1` (configuration not stated), the figures for the inhibitory constant (Ki) in test [1] and in test [2] were > 1000 nM and 5.6 nM, respectively.

As for `O=C1C2CCCN2C(=O)N1CN1CCN(c2cccc3[nH]cnc23)CC1` (configuration not stated), the Ki was found to be 10000 nM in test [1] and 4.1 nM in test [2].

For the origin of these results see ChEMBL document CHEMBL1136702, “Design and synthesis of S-(-)-2-[[4-(napht-1-yl)piperazin-1-yl]methyl]-1,4-dioxoperhydropyrrolo[1,2-a]pyrazine (CSP-2503) using computational simulation. A 5-HT1A receptor agonist” (Bioorg Med Chem Lett, 2003).
